The record followed here is US9546164B2 (GENENTECH, INC., priority 2013, dated 2017).

Where a name gives a salt, the structure may show the parent alone.

The target in one assay is hNav1.7 (Homo sapiens (Human), UniProt Q15858). The experiment in a line: Tritiated sulfonamide competitive binding to membranes from cells expressing hNav1.7 and the β1 subunit.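 Note: Filter-bound radioactivity counted by liquid scintillation, nonspecific binding defined with excess unlabelled ligand, IC50 fitted to percent inhibition of specific binding.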
Sequence of hNav1.7 (Q15858 other isoform, or with tags, fused parts or gaps): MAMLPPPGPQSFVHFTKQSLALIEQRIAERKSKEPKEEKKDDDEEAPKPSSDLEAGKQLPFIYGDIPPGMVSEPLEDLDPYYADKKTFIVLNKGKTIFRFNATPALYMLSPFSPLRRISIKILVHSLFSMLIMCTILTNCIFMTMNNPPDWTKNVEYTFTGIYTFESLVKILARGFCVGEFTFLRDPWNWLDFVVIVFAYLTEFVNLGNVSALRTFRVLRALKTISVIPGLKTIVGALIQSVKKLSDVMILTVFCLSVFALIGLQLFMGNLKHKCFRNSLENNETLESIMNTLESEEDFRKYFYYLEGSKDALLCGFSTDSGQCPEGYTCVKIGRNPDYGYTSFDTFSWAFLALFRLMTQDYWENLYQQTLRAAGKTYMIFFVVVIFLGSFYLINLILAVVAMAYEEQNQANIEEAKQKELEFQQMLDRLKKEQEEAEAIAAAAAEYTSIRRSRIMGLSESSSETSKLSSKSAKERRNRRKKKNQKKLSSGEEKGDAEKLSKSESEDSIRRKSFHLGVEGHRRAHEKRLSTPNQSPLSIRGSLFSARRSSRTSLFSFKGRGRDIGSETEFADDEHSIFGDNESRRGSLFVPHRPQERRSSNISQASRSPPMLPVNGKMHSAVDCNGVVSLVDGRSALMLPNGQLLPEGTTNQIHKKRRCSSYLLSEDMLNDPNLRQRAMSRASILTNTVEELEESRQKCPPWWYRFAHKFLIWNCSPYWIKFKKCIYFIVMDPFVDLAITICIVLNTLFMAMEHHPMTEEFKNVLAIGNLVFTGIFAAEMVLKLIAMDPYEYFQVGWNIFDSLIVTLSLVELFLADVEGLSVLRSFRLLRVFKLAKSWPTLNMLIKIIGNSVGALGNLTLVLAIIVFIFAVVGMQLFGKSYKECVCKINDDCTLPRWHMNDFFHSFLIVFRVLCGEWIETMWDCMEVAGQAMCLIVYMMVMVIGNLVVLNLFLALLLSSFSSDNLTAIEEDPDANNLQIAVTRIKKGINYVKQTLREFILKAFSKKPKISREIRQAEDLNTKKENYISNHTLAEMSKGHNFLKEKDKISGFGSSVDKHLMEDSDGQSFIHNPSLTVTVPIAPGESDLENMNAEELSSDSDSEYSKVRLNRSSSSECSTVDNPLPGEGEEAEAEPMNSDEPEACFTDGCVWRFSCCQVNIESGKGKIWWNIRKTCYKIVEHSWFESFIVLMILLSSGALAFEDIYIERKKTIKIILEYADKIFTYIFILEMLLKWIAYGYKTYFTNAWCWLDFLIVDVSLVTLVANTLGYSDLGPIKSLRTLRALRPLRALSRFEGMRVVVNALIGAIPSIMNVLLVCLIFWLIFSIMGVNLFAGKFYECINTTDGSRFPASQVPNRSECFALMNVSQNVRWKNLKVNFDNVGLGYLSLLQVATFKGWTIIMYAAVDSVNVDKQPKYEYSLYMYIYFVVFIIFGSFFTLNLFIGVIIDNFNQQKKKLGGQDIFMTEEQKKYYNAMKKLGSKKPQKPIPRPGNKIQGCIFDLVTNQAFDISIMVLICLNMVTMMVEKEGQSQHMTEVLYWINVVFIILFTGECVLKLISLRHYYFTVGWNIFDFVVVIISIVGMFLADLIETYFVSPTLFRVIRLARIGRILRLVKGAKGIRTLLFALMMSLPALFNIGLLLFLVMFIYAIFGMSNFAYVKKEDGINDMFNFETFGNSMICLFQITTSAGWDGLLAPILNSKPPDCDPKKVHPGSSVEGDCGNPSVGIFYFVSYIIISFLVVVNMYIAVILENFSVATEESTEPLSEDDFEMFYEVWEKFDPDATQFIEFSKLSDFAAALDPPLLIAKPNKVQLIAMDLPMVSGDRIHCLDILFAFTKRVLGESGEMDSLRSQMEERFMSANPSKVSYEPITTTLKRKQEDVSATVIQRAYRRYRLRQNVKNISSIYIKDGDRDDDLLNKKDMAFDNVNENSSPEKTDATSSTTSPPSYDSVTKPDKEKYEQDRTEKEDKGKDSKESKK
Sequence of hNav1.7 (Q07699 19-218 partner): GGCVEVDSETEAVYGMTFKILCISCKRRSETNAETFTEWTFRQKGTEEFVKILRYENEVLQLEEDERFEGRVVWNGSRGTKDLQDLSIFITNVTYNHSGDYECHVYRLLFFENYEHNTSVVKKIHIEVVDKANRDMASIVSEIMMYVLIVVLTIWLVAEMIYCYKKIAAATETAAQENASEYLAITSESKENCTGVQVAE
Conditions: not given
`O=C(NS(=O)(=O)C1CC1)c1cc(C2CC2)c(CN2C[C@@H]3C[C@H]2CN3S(=O)(=O)c2cc(Cl)cc(Cl)c2)cc1F` [Example 559, 5-cyclopropyl-N-(cyclopropylsulfonyl)-4-(((1S,4S)-5-((3,5-dichlorophenyl)sulfonyl)-2,5-diazabicyclo[2.2.1]heptan-2-yl)methyl)-2-fluorobenzamide, trifluoroacetic acid salt] showed an IC50 of 18.9 nM.

Molecule `CS(=O)(=O)NC(=O)c1cc(C2CC2)c(O[C@@H]2CCCN(c3cc(Cl)cc(Cl)c3)C2)cc1F` [Example 44, (R)-5-cyclopropyl-4-((1-(3,5-dichlorophenyl)piperidin-3-yl)oxy)-2-fluoro-N-(methylsulfonyl)benzamide] had an IC50 of 3.6 nM.

Molecule `CS(=O)(=O)NC(=O)c1cc(C2CC2)c(CN2CC(Oc3cc(Cl)cc(Cl)c3)C2)cc1F` [Example 544, 5-cyclopropyl-4-((3-(3,5-dichlorophenoxy)azetidin-1-yl)methyl)-2-fluoro-N-(methylsulfonyl)benzamide, trifluoroacetic acid salt] gave an IC50 of 15.3 nM.

In the case of `O=C(NS(=O)(=O)C1CC1)c1cc(C2CC2)c(O[C@@H]2CCCN(c3ccc(F)cc3)C2)cc1F` [Example 38, (R)-5-cyclopropyl-N-(cyclopropylsulfonyl)-2-fluoro-4-((1-(4-fluorophenyl)piperidin-3-yl)oxy)benzamide], the IC50 is 3.9 nM.

For `O=C(NS(=O)(=O)C1CC1)c1cc(C2CC2)c(CN2CCN(S(=O)(=O)c3cc(Cl)cc(Cl)c3)CC2)cc1F` [Example 527, 5-cyclopropyl-N-(cyclopropylsulfonyl)-4-((4-((3,5-dichlorophenyl)sulfonyl)piperazin-1-yl)methyl)-2-fluorobenzamide, trifluoroacetic acid salt], the IC50 is 9.9 nM.

Still in this assay, the particulars now being: read-out: Ligand Binding Assay; 100 pM [3H]compound, membranes with hNav1.7 and β1 subunit, 18 h, room temperature.
For `CCC(c1cc(Cl)cc(Cl)c1)N1CC(COc2cc(F)c(C(=O)NS(C)(=O)=O)cc2C2CC2)C1` (stereo not drawn) [Example 158, 5-Cyclopropyl-4-((1-(1-(3,5-dichlorophenyl)propyl)azetidin-3-yl)methoxy)-2-fluoro-N-(methylsulfonyl)benzamide], the IC50 was 12.3 nM.

For `CS(=O)(=O)NC(=O)c1cc(C2CC2)c(OCC2CN(C(=O)c3cc(Cl)cc(Cl)c3)C2)cc1F` [Example 134, 5-Cyclopropyl-4-((1-(3,5-dichlorobenzoyl)azetidin-3-yl)methoxy)-2-fluoro-N-(methylsulfonyl)benzamide], the IC50 was found to be 346 nM.

For the molecule `CC1(COc2cc(F)c(C(=O)NS(C)(=O)=O)cc2C2CC2)CCN(c2cc(C(F)(F)F)c(Cl)cn2)CC1` [Example 556, 4-((1-(5-chloro-4-(trifluoromethyl)pyridin-2-yl)-4-methylpiperidin-4-yl)methoxy)-5-cyclopropyl-2-fluoro-N-(methylsulfonyl)benzamide], the IC50 stood at 2.1 nM.

On to `O=C(NS(=O)(=O)C1CC1)c1cc(C2CC2)c(CN2CCC(OCc3ccc(F)cc3Cl)CC2)cc1F` [Example 480, 4-((4-((2-chloro-4-fluorobenzyl)oxy)piperidin-1-yl)methyl)-5-cyclopropyl-N-(cyclopropylsulfonyl)-2-fluorobenzamide, trifluoroacetic acid salt], for which the IC50 stood at 21.8 nM.

Turning to `CS(=O)(=O)NC(=O)c1cc(C2CC2)c(O[C@@H]2CCCN(Cc3ccc(-c4ccccc4)cc3)C2)cc1F` [Example 426, (R)-4-((1-([1,1′-biphenyl]-4-ylmethyl)piperidin-3-yl)oxy)-5-cyclopropyl-2-fluoro-N-(methylsulfonyl)benzamide, trifluoroacetic acid salt], the IC50 worked out at 3.1 nM.

On to `CS(=O)(=O)NC(=O)c1cc(C2CC2)c(OCC2CN([C@@H](c3ccccc3)c3ccc(F)cc3)C2)cc1F` [Example 144, (S)-5-Cyclopropyl-2-fluoro-4-((1-((4-fluorophenyl)(phenyl)methyl)azetidin-3-yl)methoxy)-N-(methylsulfonyl)benzamide], for which the IC50 came to 9.15 nM.

On to “5-Cyclopropyl-2-fluoro-N-(methylsulfonyl)-4-((1-(1-phenylethyl)-piperidin-4-yl)methoxy)benzamide [Example 146]”, for which the IC50 was 276 nM.

On to `Cc1ccc(CN2CCC[C@@H](Oc3cc(F)c(C(=O)NS(C)(=O)=O)cc3C3CC3)C2)cc1C` [Example 439, (R)-5-cyclopropyl-4-((1-(3,4-dimethylbenzyl)piperidin-3-yl)oxy)-2-fluoro-N-(methylsulfonyl)benzamide, trifluoracetic acid salt], for which the IC50 stood at 11 nM.

`O=C(NS(=O)(=O)C1CC1)c1cc(C2CC2)c(O[C@@H]2CCCN(c3ccc(C(F)(F)F)cn3)C2)cc1F` [Example 491, (R)-5-cyclopropyl-N-(cyclopropylsulfonyl)-2-fluoro-4-((1-(5-(trifluoromethyl)pyridin-2-yl)piperidin-3-yl)oxy)benzamide, trifluoroacetic acid salt]: the IC50 turned out to be 28.3 nM.

Turning to `CS(=O)(=O)NC(=O)c1cc(C2CC2)c(OCC2CN(Cc3ccccc3)C2)cc1F` [Example 74, -((1-benzylazetidin-3-yl)methoxy)-5-cyclopropyl-2-fluoro-N-(methylsulfonyl)benzamide], the IC50 was 3600 nM.

With `COc1cc(OC(F)(F)F)ccc1CN1CCC[C@@H](Oc2cc(F)c(C(=O)NS(C)(=O)=O)cc2C2CC2)C1` [Example 438, (R)-5-cyclopropyl-2-fluoro-4-((1-(2-methoxy-4-(trifluoromethoxy)benzyl)piperidin-3-yl)oxy)-N-(methylsulfonyl)benzamide, trifluoroacetic acid salt], the IC50 was found to be 9.5 nM.

In the case of `O=C(NS(=O)(=O)C1CC1)c1cc(C2CC2)c(OCC2CCN(S(=O)(=O)c3ccc(C(F)(F)F)cc3)CC2)cc1F` [Example 373, 5-cyclopropyl-N-(cyclopropylsulfonyl)-2-fluoro-4-((1-((4-(trifluoromethyl)phenyl)sulfonyl)piperidin-4-yl)methoxy)benzamide], the IC50 amounted to 19.7 nM.

As for `O=C(NS(=O)(=O)C1CC1)c1cc(C2CC2)c(OCC2CCN(C(=O)c3ccccc3C(F)(F)F)CC2)cc1F` [Example 256, 5-Cyclopropyl-N-(cyclopropylsulfonyl)-2-fluoro-4-((1-(2-(trifluoromethyl)benzoyl)piperidin-4-yl)methoxy)benzamide], the IC50 was determined as 290 nM.

Turning to `O=C(NS(=O)(=O)C1CC1)c1cc(C2CC2)c(CN2CCO[C@H](Cc3ccc(Cl)c(Cl)c3)C2)cc1F` [Example 460, (R)-5-cyclopropyl-N-(cyclopropylsulfonyl)-4-((2-(3,4-dichlorobenzyl)morpholino)methyl)-2-fluorobenzamide], the IC50 amounted to 5 nM.

In the case of `Cc1cc(C(=O)NS(=O)(=O)C2CC2)c(F)cc1OCC1CCN([C@@H](C)c2cc(Cl)cc(Cl)c2)CC1` [Example 359, (S)—N-(cyclopropylsulfonyl)-4-((1-(1-(3,5-dichlorophenyl)ethyl)piperidin-4-yl)methoxy)-2-fluoro-5-methylbenzamide trifluoroacetic acid salt], the IC50 was found to be 11.4 nM.

On to `O=C(NS(=O)(=O)C1CC1)c1cc(C2CC2)c(O[C@@H]2CCCN(c3ccccn3)C2)cc1F` [Example 492, (R)-5-cyclopropyl-N-(cyclopropylsulfonyl)-2-fluoro-4-((1-(pyridin-2-yl)piperidin-3-yl)oxy)benzamide], for which the IC50 worked out at 93.8 nM.

For `CS(=O)(=O)NC(=O)c1cc(C2CC2)c(OCC2CC3CCC(C2)N3Cc2cc(Cl)cc(Cl)c2)cc1F` [Example 449, 5-cyclopropyl-4-(((1R,3R,5S)-8-(3,5-dichlorobenzyl)-8-azabicyclo[3.2.1]octan-3-yl)methoxy)-2-fluoro-N-(methylsulfonyl)benzamide], the IC50 turned out to be 17.1 nM.

As for `COC[C@@H](c1ccc(F)c(C(F)(F)F)c1)N1CCC(COc2cc(F)c(C(=O)NS(C)(=O)=O)cc2C2CC2)CC1` (single isomer, unassigned) [Example 187], the IC50 came to 5 nM.

Turning to `O=C(NS(=O)(=O)C1CC1)c1cc(C2CC2)c(CN2CCO[C@H](Cc3ccc(F)cc3Cl)C2)cc1F` [Example 467, (R)-4-((2-(2-chloro-4-fluorobenzyl)morpholino)methyl)-5-cyclopropyl-N-(cyclopropylsulfonyl)-2-fluorobenzamide, trifluoroacetic acid salt], the IC50 is 4.3 nM.

Turning to `C[C@@H](c1ccc(Cl)c(C2CC2)n1)N1CCC[C@@H](Oc2cc(F)c(C(=O)NS(C)(=O)=O)cc2C2CC2)C1` [Example 310, 4-(((R)-1-((S)-1-(5-chloro-6-cyclopropylpyridin-2-yl)ethyl)piperidin-3-yl)oxy)-5-cyclopropyl-2-fluoro-N-(methylsulfonyl)benzamide], the IC50 was 2.3 nM.

For `CC(c1cc(Cl)cc(Cl)c1)N1CCC(COc2cc(F)c(C(=O)NS(=O)(=O)N3CCC3)cc2C2CC2)CC1` (stereo not drawn) [Example 103, N-(Azetidin-1-ylsulfonyl)-5-cyclopropyl-4-((1-(1-(3,5-dichlorophenyl)-ethyl)piperidin-4-yl)methoxy)-2-fluorobenzamide], the IC50 came to 5.24 nM.

`C[C@@H](c1cccc(F)c1)N1CCC(C)(COc2cc(F)c(C(=O)NS(C)(=O)=O)cc2C2CC2)CC1` (single isomer, unassigned) [Example 251]: the IC50 was 49 nM.

On to `O=C(NS(=O)(=O)C1CC1)c1cc(C2CC2)c(OCC2CCN(S(=O)(=O)c3cc(F)c(F)c(F)c3)CC2)cc1F` [Example 381, 5-cyclopropyl-N-(cyclopropylsulfonyl)-2-fluoro-4-((1-((3,4,5-trifluorophenyl)sulfonyl)piperidin-4-yl)methoxy)benzamide], for which the IC50 worked out at 14.8 nM.

In the case of `CS(=O)(=O)NC(=O)c1cc(C2CC2)c(OCC2CN([C@H](c3ccccc3)c3ccncc3)C2)cc1F` [Example 153, (R)-5-Cyclopropyl-2-fluoro-N-(methylsulfonyl)-4-((1-(phenyl(pyridin-4-yl)methyl)azetidin-3-yl)methoxy)benzamide], the IC50 came out at 439 nM.

As to `CC1(Oc2cc(C(F)(F)F)c(Cl)cn2)CCN(Cc2cc(F)c(C(=O)NS(=O)(=O)C3CC3)cc2C2CC2)CC1` [Example 472, 4-((4-((5-chloro-4-(trifluoromethyl)pyridin-2-yl)oxy)-4-methylpiperidin-1-yl)methyl)-5-cyclopropyl-N-(cyclopropylsulfonyl)-2-fluorobenzamide, trifluoroacetic acid salt], the IC50 amounted to 3.6 nM.
